The values that follow come from the supplement of paper PMC10307832.

What all share (assay): relative viability (nuclei count vs DMSO), 5 days (fraction); higher = more cells survive
Compound in the assay “AZD8055 + Luminespib”: COc1ccc(-c2ccc3c(N4CCOC[C@@H]4C)nc(N4CCOC[C@@H]4C)nc3n2)cc1CO [AZD8055] + CCNC(=O)c1noc(-c2cc(C(C)C)c(O)cc2O)c1-c1ccc(CN2CCOCC2)cc1 [Luminespib] (partner 0.01 µM)
The essentials:
(§1)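 Lung cancer cell lines in 1536-well plates were dosed by pin tool the day after seeding, either with one drug alone or with a fixed anchor-drug dose plus five library-drug doses (not always all listed) in √10 steps. After 5 days, cells were fixed and their nuclei stained in one step (final 0.05% Triton X-100, 1% formaldehyde, 1 ug/ml Hoechst), then counted on 4× images. Relative viability is the nuclei count in treated wells divided by that in vehicle wells. Values are medians of duplicate plates.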

Compound in the assay “AZD8055 + Lapatinib”: COc1ccc(-c2ccc3c(N4CCOC[C@@H]4C)nc(N4CCOC[C@@H]4C)nc3n2)cc1CO [AZD8055] + CS(=O)(=O)CCNCc1ccc(-c2ccc3ncnc(Nc4ccc(OCc5cccc(F)c5)c(Cl)c4)c3c2)o1 [Lapatinib] (partner 2 µM)
The method, boiled down: as §1

Compound in the assay “AZD8055 + Decitabine”: COc1ccc(-c2ccc3c(N4CCOC[C@@H]4C)nc(N4CCOC[C@@H]4C)nc3n2)cc1CO [AZD8055] + Nc1ncn([C@H]2C[C@H](O)[C@@H](CO)O2)c(=O)n1 [Decitabine] (partner 2 µM)
The method, boiled down: as §1

Compound in the assay “AZD8055 + Olaparib”: COc1ccc(-c2ccc3c(N4CCOC[C@@H]4C)nc(N4CCOC[C@@H]4C)nc3n2)cc1CO [AZD8055] + O=C(c1cc(Cc2n[nH]c(=O)c3ccccc23)ccc1F)N1CCN(C(=O)C2CC2)CC1 [Olaparib] (partner 8 µM)
The essentials:
as §1

For EMC-BAC-2, the relative viability with AZD8055 + Luminespib (first compound 0.01 µM) turned out to be 1.18; with AZD8055 + Luminespib (first compound 0.03162 µM) it was 1.05; with AZD8055 + Luminespib (first compound 0.1 µM), 0.867; in the assay with AZD8055 + Luminespib (first compound 0.3162 µM), 0.534; with AZD8055 + Luminespib (first compound 1 µM), 0.403; with AZD8055 + Lapatinib (first compound 0.01 µM), 0.867. The relative viability was 0.777 with AZD8055 + Lapatinib (first compound 0.03162 µM); 0.74 with AZD8055 + Lapatinib (first compound 0.1 µM); 0.403 with AZD8055 + Lapatinib (first compound 0.3162 µM); 0.406 in the assay with AZD8055 + Lapatinib (first compound 1 µM); 1.02 in the assay with AZD8055 + Decitabine (first compound 0.01 µM); 0.875 with AZD8055 + Decitabine (first compound 0.03162 µM). Also, the relative viability with AZD8055 + Decitabine (first compound 0.1 µM) turned out to be 0.817; with AZD8055 + Decitabine (first compound 0.3162 µM) it was 0.498; in the assay with AZD8055 + Decitabine (first compound 1 µM), 0.505; with AZD8055 + Olaparib (first compound 0.01 µM), 0.391; with AZD8055 + Olaparib (first compound 0.03162 µM), 0.465; with AZD8055 + Olaparib (first compound 0.1 µM) it was 0.395. In addition, the relative viability turned out to be 0.272 in the assay with AZD8055 + Olaparib (first compound 0.3162 µM) and 0.244 with AZD8055 + Olaparib (first compound 1 µM).
Consider NCI-H1650, for which the relative viability with AZD8055 + Luminespib (first compound 0.01 µM) worked out at 0.204; in the assay with AZD8055 + Luminespib (first compound 0.03162 µM) it was 0.196; with AZD8055 + Luminespib (first compound 0.1 µM), 0.206; with AZD8055 + Luminespib (first compound 0.3162 µM) it was 0.203; in the assay with AZD8055 + Luminespib (first compound 1 µM) it was 0.253; with AZD8055 + Lapatinib (first compound 0.01 µM) it was 0.767. Moreover, the relative viability with AZD8055 + Lapatinib (first compound 0.03162 µM) worked out at 0.731; with AZD8055 + Lapatinib (first compound 0.1 µM), 0.71; with AZD8055 + Lapatinib (first compound 0.3162 µM) it was 0.452; in the assay with AZD8055 + Lapatinib (first compound 1 µM) it was 0.44; with AZD8055 + Decitabine (first compound 0.01 µM) it was 0.535; with AZD8055 + Decitabine (first compound 0.03162 µM), 0.432. In addition, the relative viability in the assay with AZD8055 + Decitabine (first compound 0.1 µM) stood at 0.439; with AZD8055 + Decitabine (first compound 0.3162 µM) it was 0.384; with AZD8055 + Decitabine (first compound 1 µM), 0.358; with AZD8055 + Olaparib (first compound 0.01 µM), 0.985; in the assay with AZD8055 + Olaparib (first compound 0.03162 µM) it was 0.865; with AZD8055 + Olaparib (first compound 0.1 µM) it was 0.726. For the same cell line, the values for the relative viability with AZD8055 + Olaparib (first compound 0.3162 µM) and with AZD8055 + Olaparib (first compound 1 µM) were 0.417 and 0.472, respectively.
Consider NCI-H596, for which the relative viability with AZD8055 + Luminespib (first compound 0.01 µM) worked out at 0.961; with AZD8055 + Luminespib (first compound 0.03162 µM), 0.813; with AZD8055 + Luminespib (first compound 0.1 µM) it was 0.44; with AZD8055 + Luminespib (first compound 0.3162 µM), 0.343; with AZD8055 + Luminespib (first compound 1 µM), 0.346; with AZD8055 + Lapatinib (first compound 0.01 µM), 1. In addition, the relative viability in the assay with AZD8055 + Lapatinib (first compound 0.03162 µM) turned out to be 0.682; with AZD8055 + Lapatinib (first compound 0.1 µM), 0.661; with AZD8055 + Lapatinib (first compound 0.3162 µM), 0.535; in the assay with AZD8055 + Lapatinib (first compound 1 µM), 0.463; in the assay with AZD8055 + Decitabine (first compound 0.01 µM), 1.06; in the assay with AZD8055 + Decitabine (first compound 0.03162 µM), 0.841. Further, the relative viability was 0.698 in the assay with AZD8055 + Decitabine (first compound 0.1 µM); 0.571 in the assay with AZD8055 + Decitabine (first compound 0.3162 µM); 0.528 with AZD8055 + Decitabine (first compound 1 µM); 0.752 with AZD8055 + Olaparib (first compound 0.01 µM); 0.615 with AZD8055 + Olaparib (first compound 0.03162 µM); 0.459 with AZD8055 + Olaparib (first compound 0.1 µM). Moreover, the relative viability with AZD8055 + Olaparib (first compound 0.3162 µM) worked out at 0.452; in the assay with AZD8055 + Olaparib (first compound 1 µM), 0.514.
Consider LCLC-97TM1, for which the relative viability worked out at 0.706 with AZD8055 + Luminespib (first compound 0.01 µM); 0.531 with AZD8055 + Luminespib (first compound 0.03162 µM); 0.365 with AZD8055 + Luminespib (first compound 0.1 µM); 0.216 in the assay with AZD8055 + Luminespib (first compound 0.3162 µM); 0.241 with AZD8055 + Luminespib (first compound 1 µM); 0.758 with AZD8055 + Lapatinib (first compound 0.01 µM). In addition, the relative viability worked out at 0.815 with AZD8055 + Lapatinib (first compound 0.03162 µM); 0.639 with AZD8055 + Lapatinib (first compound 0.1 µM); 0.157 with AZD8055 + Lapatinib (first compound 0.3162 µM); 0.181 with AZD8055 + Lapatinib (first compound 1 µM); 0.239 with AZD8055 + Decitabine (first compound 0.01 µM); 0.184 in the assay with AZD8055 + Decitabine (first compound 0.03162 µM). Moreover, the relative viability stood at 0.17 with AZD8055 + Decitabine (first compound 0.1 µM); 0.133 in the assay with AZD8055 + Decitabine (first compound 0.3162 µM); 0.147 with AZD8055 + Decitabine (first compound 1 µM); 0.413 with AZD8055 + Olaparib (first compound 0.01 µM); 0.308 with AZD8055 + Olaparib (first compound 0.03162 µM); 0.216 with AZD8055 + Olaparib (first compound 0.1 µM). For the same cell line, the figures for the relative viability with AZD8055 + Olaparib (first compound 0.3162 µM) and with AZD8055 + Olaparib (first compound 1 µM) were 0.105 and 0.0929, respectively.
